From US9175077B2, “Nucleic acids encoding biologically active polypeptides derived from a novel early stage pregnancy factor designated maternin (MA)” (NOBEL BIOSCIENCES LLC, priority 1999, dated 2015) come the findings set out here.

One series relates to human tumor cells. In kind it is cell-based.
Series [1] can be described thus: Lethally irradiated rats and mice. The settings on record: for survival: treated at time of radiation, 3×/week for 4 weeks. As for the experimental part:
In order to determine in vivo relevance of the prohematopoietic effects of MA treated rats and mice under several conditions of bone marrow suppression. First, the effects of native MA and pMA and of the synthetic 15-mer MAS1 were treated for their capacity to reduce or prevent the effects of lethal doses of gamma irradiation. […] MA, pMA, MAS1, and various control polypeptides were given 48 and 24 hrs before, during, or 24 hrs after radiation. The animals treated prior to radiation received either 100 ng vs. 1 ug (rats) or 50 ng vs. 500 ng (mice) as 2 subcutaneous injections.
It is not yet possible to determine the precise molar dose of pMA because of less certainty on its full-length sequence.
To ascertain that the MA effect did promote hematopoiesis in these animals we examined the bone marrow for cellularity and colony formation and determined peripheral blood counts.

Take “VVCNYRDVRFESIRLPGCPRGVNPVVSYAVALSCQ [MA]”: in the series on human tumor cells, the “effect on HTLV-I induced adult T-cell leukemia” value is “no effect” and the “effect on some β-cell lymphomas” value is “no effect”. The survival in series [1] (higher dose, over 100 days) is reported as 100%. The gastrointestinal distress result in series [1] (in vivo) is on record as “little or no gastrointestinal distress”. In series [1] (lowest doses), this sequence displayed a survival of 80%. Besides, in series [1] (pretreated, higher dose), the relative survival result is listed as “survived longest”.
